Source: US7754202B1, “Methods of controlling cell differentiation and growth using a fusion protein and a drug” (Stanford University, priority 1998, dated 2010)

How the values were obtained:
[1] = test system: Ba/F3 cell lines expressing gp130 signaling domain fused to FKBP12 domains; assay: Proliferation of Ba/F3 cell lines expressing gp130-FKBP12 fusion proteins; type: cell-based
Text: Expression cassettes encoding fusion proteins containing the signaling domains of the gp130 fused to one, two or three copies of the FKBP12 domain were used to generate stably transfected Ba/F3 cell lines. The complexes that can be assembled in response to FK1012 differ for the various fusion proteins. In the presence of FK1012, fusion proteins containing a single FKBP domain are limited to simple dimerization, whereas proteins containing two or more FKBP domains can form both dimers and oligomers.
In one illustrative experiment, an MSCV-based expression vector was constructed that contained two FKBP12 domains.

cells = assay: Immunosuppressive activity or other toxicity to cells; type: cell-based; settings: in experiments to date
[2] = Solubility in aqueous culture medium; type: physicochemical; settings: aqueous buffer, serial dilution in culture medium, read-out: highest concentration ensuring complete solubility in the (aqueous) medium
Description: Working concentrations of AP1510 can be obtained by adding compound directly from ethanol stocks, or by diluting serially in culture medium just before use. In the latter case it is recommended that the highest concentration not exceed 5 uM, to ensure complete solubility in the (aqueous) medium. In either case, the final concentration of ethanol in the medium added to mammalian cells should be kept below 0.5% (a 200-fold dilution of a 100% ethanol solution) to prevent detrimental effects of the solvent on the cells.

[3] = test system: CD34+ cells from human cord blood transduced with dimerizer-responsive c-mpl signaling domain; assay: Amplification and erythroid differentiation of MFM-transduced human cord blood CD34+ cells; type: cell-based
Text: CD34+ cells were selected from human cord blood and transduced with a PG13-packaged, MSCV-based retrovirus vector encoding a dimerizer-responsive version of the c-mpl signaling domain (MFM, as described in Example 7, see FIG. 4). […] This finding was reproducible, occurring in each of four separate experiments.

[4] = test system: murine bone marrow cells transduced with MSCVF1mpl; assay: Suspension culture of MSCVF1mpl-transduced bone marrow cells (cell numbers, cell types); type: cell-based
Description: FIG. 2: FK1012 stimulates expansion of genetically modified bone marrow cells. Following retroviral transduction, marrow cells were cultured in IMDM containing 10% FCS, 50 U/ml penicillin, […] streptomycin either in the presence or absence of FK1012 (100 nM) or flt-3 ligand (Peprotech-100 ng/ml), in a 37°, 5% CO2, incubator. Cell numbers were determined on the days indicated. Open diamonds: No FK1012, no FL; Closed diamonds: FK1012 alone; Open circles: FL alone; Closed circles: FK1012 plus FL. Note that X axis is on a logarithmic scale.
Forty-eight hours following administration of 150 mg/kg 5-fluorouracil (5-FU), marrow cells were harvested from B6D2F1 mice and cultured for 48 hours in Dulbecco's Modified Eagle's Medium containing 16% fetal calf serum (Intergen), 5% IL3-conditioned medium (Stem Cell Technologies), 100 ng/ml recombinant human IL6 and 50 ng/ml recombinant murine stem cell factor in a 37° C., 5% CO2 incubator. After 48 hours, cells were transferred onto irradiated (1500 cGy) producer cells and cocultivated using the same growth conditions except for the addition of polybrene ([…]). Marrow cells were harvested after 48-hours of cocultivation.
In order to test whether the pharmacological activation of mpl is capable of driving proliferation in genetically modified bone marrow cells, the F1mpl construct was inserted into the retroviral vector MSCV-neoEB (Hawley, et al. Gene Ther. 1:136, 1994). The resulting construct, MSCVF1mpl, was used to generate a stable, high titer, helper virus-free ecotropic producer cell line as described above. Supernatant from the producer cell line was capable of conferring G418 resistance and FK1012 responsiveness in transduced Ba/F3 cell clones (FIG. 1C). Gene transfer into murine bone marrow cells was performed by cocultivation, and transduced marrow cells were tested in suspension culture for the capacity to respond to FK1012. In one set of cultures, FK1012's effects were evaluated in the absence of added growth factors. […] Cell numbers were determined at various time points of culture (FIG. 2). In the absence of drug or added growth factors, all cells died over a period of 7-14 days. […] In contrast, FK1012 dramatically stimulated cell proliferation. The proliferative effect of FK1012 was apparent within 5 days of culture, and has persisted for longer than 49 days without evidence of decline. […] By 42 days of culture FK1012 had induced a greater than 2.5 million-fold expansion in cell numbers.
The types of cells emerging in response to FK1012 differed at varying time points of culture. […] Similar results were obtained in a second experiment.

transduced marrow cells = assay: Reversibility of FK1012-dependent cell proliferation after 28 days of culture; type: cell-based, murine
Description: For the experiments whose results are shown in Table 3, after 28 days of culture in FK1012 (100 nM), transduced marrow cells were washed extensively and cultured in suspension in the presence (+) or absence (−) of FK1012. The numbers in Table 3 indicate the number of cells per well×10^−5.

[5] = test system: clonogenic progenitor cells (CFU-C) of MSCVF1mpl-transduced marrow; assay: CFU-C assays during suspension culture, with or without G418; type: cell-based, murine
Description: FIG. 3: CFU-C assays at various time points during suspension culture. Cells were harvested on the days indicated and cultured in semisolid media (Blau, et al. Hum. Gen. Ther. 7:2069, 1996) either in the presence or absence of G418. The concentration of G418, […], was sufficient to prevent the growth of nontransduced cells (data not shown). Dark bars: CFU-C numbers in the absence of G418; Light bars: CFU-C numbers in the presence of G418. (A) No FK1012, no FL; (B) FK1012 alone; (C) FL alone; (D) FK1012 plus FL. Note that FK1012-mediated CFU-C expansion markedly favors the genetically modified cell population.
To determine whether FK1012 is capable of stimulating expansion among clonogenic progenitor cells, progenitors were assayed at various time points of culture as colony forming unit cells (CFU-C). As the MSCVF1mpl vector incorporates a neo gene. (Hawley, et al. Gene Ther. 1:136, 1994), the frequency of genetically modified progenitors is reflected in the frequency of G418 resistant CFU-C. […] By day 28 CFU-C had fallen to undetectable levels (FIG. 3A). In contrast, in the presence of FK1012 an almost 600,000-fold expansion in CFU-C was observed by day 42 (FIG. 3B). […] Of note is that while granulocytes were virtually absent after 42 days in suspension culture in the presence of FK1012 alone, CFU-C progeny derived from these cultures contained large numbers of granulocytes. […]

G418 resistant CFU-C = assay: FK1012-mediated selection of genetically modified CFU-C in a mixed transduced/non-transduced marrow population; type: cell-based, murine; settings: mixed transduced and non-transduced marrow
Text: In order to determine whether FK1012 is capable of specifically delivering a mitogenic signal to a minor population of genetically modified CFU-C, marrow cells cocultivated with the MSCVF1mpl producer cell line were mixed with marrow cells cocultivated with the parental packaging cell line. The frequency of G418 CFU-C arising from this mixed population of transduced and non-transduced cells was 35%.
The numbers in Table 4 indicate the fraction of G418 resistant CFU-C.

[6] = gp130 chimeric proteins containing a single FKBP12 domain
[7] = gp130 fusion proteins with two or three FKBP12 domains
[8] = FK1012 100 nM, suspension culture

CCC(C)(C)C(=O)C(=O)N1CCCC[C@H]1C(=O)O[C@H](CCc1ccc(OC)c(OC)c1)c1cccc(OCC(=O)NCCNC(=O)COc2cccc([C@@H](CCc3ccc(OC)c(OC)c3)OC(=O)[C@@H]3CCCCN3C(=O)C(=O)C(C)(C)CC)c2)c1 [AP1510]
proliferative response [1, 6]: minimal proliferative response
proliferative response [1, 7]: vigorous proliferative responses
immunosuppressive activity or other toxicity to cells (cells): no immunosuppressive activity or other toxicity to cells
solubility [2]: ≤ 5 µM

CC[C@H](C(=O)N1CCCC[C@H]1C(=O)O[C@H](CCc1ccc(OC)c(OC)c1)c1cccc(OCC(=O)NCCNC(=O)COc2cccc([C@@H](CCc3ccc(OC)c(OC)c3)OC(=O)[C@@H]3CCCCN3C(=O)[C@@H](CC)c3cc(OC)c(OC)c(OC)c3)c2)c1)c1cc(OC)c(OC)c(OC)c1 [AP1903]
cells expressing glycophorin ([3]; by day 15 of culture): 90%
expansion in total cell numbers ([3]; in the absence of added cytokines): 175-350 fold
cell proliferation ([1]; MSCV construct, gp130 with two modified FKBP12 domains, Ba/F3 cells): vigorous AP1903-dependent cell proliferation

FK1012
persistence of proliferative effect without evidence of decline [4, 8]: > 49 days
time until proliferative effect apparent [4, 8]: ≤ 5 days
expansion in cell numbers ([4]; by 42 days of culture, FK1012 100 nM): greater than 2.5 million
types of cells emerging ([4]; first two weeks of culture in FK1012): mature granulocytes and macrophages predominated, while megakaryocytes were rare
types of cells emerging ([4]; later time points of culture in FK1012): megakaryocytes emerged as the dominant phenotypically identifiable cell population
number of cells per well (transduced marrow cells; absence (−) of FK1012 after 28 days in FK1012 and washing, day 0): 5 10^5 cells per well
number of cells per well (transduced marrow cells; absence (−) of FK1012 after 28 days in FK1012 and washing, day 7): 0.59 10^5 cells per well
number of cells per well (transduced marrow cells; absence (−) of FK1012 after 28 days in FK1012 and washing, day 14): .09 cells per well×10^−5
reversibility of proliferative effect (transduced marrow cells; cells cultured 28 days in FK1012, then withdrawal or re-addition): withdrawal of FK1012 was followed promptly by cell death
number of cells per well (transduced marrow cells; presence (+) of FK1012, day 0 in culture): 5 10^5 cells per well
number of cells per well (transduced marrow cells; presence (+) of FK1012, day 7 in culture): 36 10^5 cells per well
number of cells per well (transduced marrow cells; presence (+) of FK1012, day 14 in culture): 1283 10^5 cells per well
expansion in CFU-C ([5]; by day 42, FK1012 alone): ~600,000 fold
fraction of G418 resistant CFU-C (G418 resistant CFU-C; day 0 in culture): 0.35
fraction of G418 resistant CFU-C (G418 resistant CFU-C; day 7 in culture): 0.96
proliferative response [1, 6]: minimal proliferative response
proliferative response [1, 7]: lesser proliferative responses
in vivo half life (In vivo half life): less than one

B1: FL: flt-3 ligand (Peprotech), growth factor used at 100 ng/ml (protein, UniProt P49771 27-235, looked up)
Fms-related tyrosine kinase 3 …: TQDCSFQHSPISSDFAVKIRELSDYLLQDYPVTVASNLQDEELCGGLWRLVLAQRWMERLKTVAGSKMQGLLERVNTEIHFVTKCAFQPPPSCLRFVQTNISRLLQETSEQLVALKPWITRQNFSRCLELQCQPDSSTLPPPWSPRPLEATAPTAPQPPLLLLLLLPVGLLLLAAAWCLHWQRTRRRTPRPGEQVPPVPSPQDLLLVEH
cell survival in suspension culture ([4]; FL alone): all cells died by day 28
expansion in cell numbers ([4]; FL alone (100 ng/ml), between 9 and 12 days of suspension culture): three
expansion in CFU-C ([5]; FL alone, transient, without preference for the transduced population): seven
fraction of G418 resistant CFU-C (G418 resistant CFU-C; day 0 in culture): 0.35
fraction of G418 resistant CFU-C (G418 resistant CFU-C; day 7 in culture): 0.14
